Earlier results in US6783757B2, “Composition and method for increasing exorphin catabolism to treat autism” (Kirkman Group, Inc., priority 2000, dated 2004).

System: DPPIV
Details: cultured mouse intestinal wall cells (enterocyte cells)

## O=C[C@H](O)[C@@H](O)[C@@H](O)[C@H](O)CO [galactose]
  expression of DPPIV: increase the expression of DPPIV
